Our source for the IC50 values is patent publication US5516784A, “Anti-HIV (AIDS) agents” (Schering Corporation, priority 1994, dated 1996).

The subject of one assay is HIV-1, isolate III B. Description: Test 2: inhibition of the growth of HIV-1 in tissue culture cells (CEM-SS, syncytia formation). The assay is classed as cell-based. Particulars: Human immunodeficiency virus 1, 168 h, 7 days, read-out: HIVMIC IC50. The text has this: TEST 2-INHIBITION OF THE GROWTH OF HIV-1 IN TISSUE CULTURE CELLS
This test measured the capability of the compounds to inhibit the growth of HIV-1 in tissue culture cells. CEM-SS cells (human T-lymphocyte derived tissue culture cells) were infected with HIV-1, isolate III B which was produced in tissue culture. After 7 days, the virus has killed the cells as monitored by extensive syncytia formation (cell fusion). The test measured the capability of the chemical synthetic compounds to prevent syncytia formation and cell death. CEM cells were grown at 37° C. in an atmosphere of 5% CO2. HIV isolate III B was prepared by growth in and crude purification from CEM cells. The chemical synthetic compound was added to 96 well microtiter plates and diluted in varying steps across the wells of the plate. Cells and virus were added to each well and the concentration of the chemical synthetic compound required to inhibit syncytia formation by 50% (the IC50) after 7 days was determined. The viability of CEM cells which are not infected with HIV-1 isolate III B was simultaneously determined by the MTT assay, as described in Mossman, J. Immunolog. Methods 65:55-63, 1983, which is herein incorporated by reference.

For assay [1], the target named is T1, HIV1 protease (Human immunodeficiency virus type 1 group M subtype B, UniProt P04585). The experiment in a line: Test 1: inhibition of proteolytic activity of HIV-1 protease (HPLC). The assay is classed as biochemical. Also on record: proteolytic activity of HIV-1 protease. Particulars: HPLC; HIV Substrate III; read-out: Enzyme Assays (HPLC) IC50. How it is done:
TEST I-INHIBITION OF PROTEOLYTIC ACTIVITY OF HIV-1-PROTEASE
The ability of compounds of the invention to inhibit the proteolytic activity of HIV-1 protease was determined by using the method of Louis, et al., Biochem. Biophys. Res. Comm. 159:87-94, (1989), which is herein incorporated by reference. In using the method of Louis et al., HIV Substrate III, His-Lys-Ala-Arg-VaI-Leu-pNO2 Phe-Glu-Ala-Nle-Ser-NH2 purchased from Bachem Bioscience, Inc. Philadelphia, Pa. was used in place of the nonapeptide substrate […]amide.

The target of assay [2] is T1, HIV1 protease. The experiment in a line: Test 3: inhibition of proteolytic activity of HIV-1 protease by scintillation proximity assay (SPA). The assay is classed as biochemical. Particulars: SPA; room temperature, 40 minutes; read-out: Enzyme Assays (SPA) IC50. The text has this:
TEST 3-INHIBITION OF PROTEOLYTIC ACTIVITY OF HIV-1-PROTEASE AS DETERMINED BY SCINTILLATION […] ASSAY (SPA).
This is an alternative assay to test #1 and is used to determine the ability of compounds to inhibit the HIV1 protease activity. The SPA assay for HIV1 protease has been developed by Amersham Corporation, Arlington Heights, Ill., and is available for commercial use. In this system the substrate for HIV1 protease, AcN-(I^125)[…]SPA bead, is cleaved by the HIV1 protease at the Phe-Phe bond releasing the I^125 -labelled peptide fragment from the SPA bead. This event causes removal of detectable signal from the microsphere bead indicated by reduction in radioactivity (measured in CPM), which is proportional to the proteolytic activity. The substrate, and the HIV 1 protease were incubated in presence of synthetic compound in various dilutions at room temperature for 40 minutes, and the concentration of the compound required to inhibit the proteolytic activity by 50% (IC50) was determined.

Converted amounts (≈) assume the structure as drawn.

On to `CC(C)(C)NC(=O)c1ccccc1SC[C@H](O)[C@H](Cc1ccccc1)NC(=O)[C@H](CC(N)=O)NC(=O)c1ccc2ccccc2n1` [Compound 2], for which the half-maximal inhibitory concentration (IC50) is 7.99 µg/mL (≈ 12.4 µM) with HIV-1, isolate III B and < 500 nM at HIV1 protease [1].

For `CC(C)(C)NC(=O)c1ccccc1SC[C@@H](O)[C@H](Cc1ccccc1)NC(=O)[C@H](CC(N)=O)NC(=O)c1ccc2ccccc2n1` [Compound 3], the IC50 came to 0.537 µg/mL (≈ 0.837 µM) in the assay on HIV-1, isolate III B and 54 nM at HIV1 protease [1].

`CC(C)(C)NC(=O)c1ccccc1OC[C@H](O)[C@H](Cc1ccccc1)NC(=O)[C@H](CC(N)=O)NC(=O)c1ccc2ccccc2n1` [Compound 4]: the IC50 with HIV-1, isolate III B turned out to be 1.7 µg/mL (≈ 2.72 µM); on HIV1 protease [1], 10 nM.

On to `CC(C)(C)NC(=O)c1ccccc1OC[C@@H](O)[C@H](Cc1ccccc1)NC(=O)[C@H](CC(N)=O)NC(=O)c1ccc2ccccc2n1` [Compound 5], for which the IC50 is 1.77 µg/mL (≈ 2.83 µM) in the assay on HIV-1, isolate III B and 8 nM at HIV1 protease [1].

For the compound `CC(C)(C)NC(=O)c1ccccc1OC[C@H](O)[C@H](Cc1ccccc1)NC(=O)[C@H](CC(N)=O)NC(=O)c1ccc2ccccc2[n+]1[O-]` [Compound 7], the half-inhibitory concentration (IC50) with HIV-1, isolate III B amounted to 5.69 µg/mL (≈ 8.87 µM); at HIV1 protease [1], 50 nM.

Take `CCCCNC(=O)c1ccccc1SC[C@H](O)[C@H](Cc1ccccc1)NC(=O)[C@H](CC(N)=O)NC(=O)c1ccc2ccccc2n1` [Compound 8]: the IC50 in the assay on HIV-1, isolate III B worked out at 28.1 µg/mL (≈ 43.8 µM); at HIV1 protease [1], 400 nM.

Turning to `CC(C)(C)NC(=O)C1CCCC1SCC(O)[C@H](Cc1ccccc1)NC(=O)[C@H](CC(N)=O)NC(=O)c1ccc2ccccc2n1` (stereo partly shown) [Compound 13], the IC50 stood at 5.07 µg/mL (≈ 8 µM) in the assay on HIV-1, isolate III B and 300 nM on HIV1 protease [1].

`NC(=O)C[C@H](NC(=O)c1ccc2ccccc2n1)C(=O)N[C@@H](Cc1ccccc1)[C@@H](O)CSC1CCCC1C(=O)Nc1ccccc1` (stereo partly shown) [Compound 20]: the IC50 in the assay on HIV-1, isolate III B turned out to be 6.26 µg/mL (≈ 9.57 µM); at HIV1 protease [1], 74 nM.

For the compound `CCC(C)[C@H](NC(=O)c1ccc2ccccc2n1)C(=O)N[C@@H](Cc1ccccc1)[C@@H](O)CSc1ccccc1C(=O)NC(C)(C)C` (stereo partly shown) [Compound 35], the IC50 with HIV-1, isolate III B stood at 2.1 µg/mL (≈ 3.28 µM); at HIV1 protease [1], 26 nM.

For `CCC(C)[C@H](NC(=O)c1ccc2ccccc2n1)C(=O)N[C@@H](Cc1ccccc1)[C@@H](O)COc1ccccc1C(=O)NC(C)(C)C` (stereo partly shown) [Compound 37], the IC50 stood at 6.08 µg/mL (≈ 9.73 µM) in the assay on HIV-1, isolate III B and 60 nM at HIV1 protease [1].

With `CN(C)C(=O)C[C@H](NC(=O)c1ccc2ccccc2n1)C(=O)N[C@@H](Cc1ccccc1)[C@@H](O)CSc1ccccc1C(=O)NC(C)(C)C` [Compound 41], the IC50 at HIV1 protease [1] was > 100 nM.

In the case of `COc1ccc(C[C@H](NC(=O)c2ccc3ccccc3n2)C(=O)N[C@@H](Cc2ccccc2)[C@@H](O)CSc2ccccc2C(=O)NC(C)(C)C)cc1` [Compound 43], the half-maximal inhibitory concentration (IC50) at HIV1 protease [1] is > 100 nM.

In the case of `CSCC[C@H](NC(=O)c1ccc2ccccc2n1)C(=O)N[C@@H](Cc1ccccc1)[C@@H](O)CSc1ccccc1C(=O)NC(C)(C)C` [Compound 44], the IC50 on HIV1 protease [1] is > 100 nM.

As for `CC(C)(C)NC(=O)c1ccccc1S(=O)(=O)C[C@H](O)[C@H](Cc1ccccc1)NC(=O)[C@H](CCS(C)(=O)=O)NC(=O)c1ccc2ccccc2n1` [Compound 45], the IC50 at HIV1 protease [1] is > 100 nM.

Take `CC(C)(C)NC(=O)c1ccccc1SC[C@H](O)[C@H](Cc1ccccc1)NC(=O)[C@@H](CC(N)=O)NC(=O)c1ccc2ccccc2n1` [Compound 47]: the IC50 on HIV1 protease [1] is > 100 nM.

For `CC(C)(C)NC(=O)c1ccccc1SC[C@H](O)[C@H](Cc1ccccc1)NC(=O)[C@H](CCC(N)=O)NC(=O)c1ccc2ccccc2n1` [Compound 48], at HIV1 protease [1], the IC50 was > 100 nM.

Turning to `CC(C)[C@H](NC(=O)c1ccc2ccccc2n1)C(=O)N[C@@H](Cc1ccccc1)[C@@H](O)CSc1ccccc1C(=O)NC(C)(C)C` [Compound 49], the IC50 in the assay with HIV-1, isolate III B came out at 19.4 µg/mL (≈ 30.9 µM); on HIV1 protease [1], 80 nM.

As for `CC(C)(C)NC(=O)c1ccccc1SC[C@H](O)[C@H](Cc1ccccc1)NC(=O)[C@H](Cc1c[nH]c2ccccc12)NC(=O)c1ccc2ccccc2n1` [Compound 51], the IC50 at HIV1 protease [1] was > 5 nM.

Turning to `CC(C)(C)NC(=O)c1ccccc1SC[C@H](O)[C@H](Cc1ccccc1)NC(=O)[C@H](CC(N)=O)NC(=O)c1ccc2ccccc2c1` [Compound 52], the IC50 in the assay with HIV-1, isolate III B was 8.58 µg/mL (≈ 13.4 µM); at HIV1 protease [2], 390 nM.

With `CCn1cc(C(=O)N[C@@H](CC(N)=O)C(=O)N[C@@H](Cc2ccccc2)[C@@H](O)CSc2ccccc2C(=O)NC(C)(C)C)c(=O)c2ccc(C)nc21` [Compound 53], the half-inhibitory concentration (IC50) at HIV1 protease [1] was > 100 nM.

For the compound `CC(C)(C)NC(=O)c1ccccc1SC[C@H](O)[C@H](Cc1ccccc1)NC(=O)[C@H](CC(N)=O)NC(=O)c1ccccn1` [Compound 54], the IC50 on HIV1 protease [1] is > 100 nM.

In the case of `CC(C)(C)NC(=O)c1ccccc1SC[C@H](O)[C@H](Cc1ccccc1)NC(=O)[C@H](CC(N)=O)NC(=O)c1cccc[n+]1[O-]` [Compound 55], the IC50 on HIV1 protease [1] was > 100 nM.

Consider `CC(C)(C)NC(=O)c1ccccc1SC[C@H](O)[C@H](Cc1ccccc1)NC(=O)[C@H](CC(N)=O)NC(=O)c1ccc(O)cn1` [Compound 56], for which, on HIV1 protease [1], the concentration for half-maximal inhibition (IC50) is > 100 nM.

With `CC(C)(C)NC(=O)c1ccccc1SC[C@H](O)[C@H](Cc1ccccc1)NC(=O)[C@H](CC(N)=O)NC(=O)c1ccc[n+]([O-])c1` [Compound 57], on HIV1 protease [1], the IC50 was > 100 nM.

Regarding `CC(C)(C)NC(=O)c1ccccc1SC[C@H](O)[C@H](Cc1ccccc1)NC(=O)[C@H](CC(N)=O)NC(=O)c1cccnc1O` [Compound 58], at HIV1 protease [1], the IC50 is > 100 nM.

In the case of `CC(C)(C)NC(=O)c1ccccc1OC[C@H](O)[C@H](Cc1ccccc1)NC(=O)[C@H](CC(N)=O)NC(=O)c1cnc2ccccc2n1` [Compound 59], the concentration for half-maximal inhibition (IC50) in the assay on HIV-1, isolate III B worked out at 1.41 µg/mL (≈ 2.25 µM); at HIV1 protease [1] it was 5 nM.

Turning to `CC(C)(C)NC(=O)c1ccccc1OC[C@@H](O)[C@@H](NC(=O)[C@H](CC(N)=O)NC(=O)c1ccc2ccccc2n1)c1ccccc1` [Compound 75], on HIV1 protease [1], the concentration for half-maximal inhibition (IC50) is > 500 nM.

On to `CCC[C@H](NC(=O)[C@H](CC(N)=O)NC(=O)c1ccc2ccccc2n1)[C@H](O)COc1ccccc1C(=O)NC(C)(C)C` [Compound 77], for which the IC50 with HIV-1, isolate III B stood at 17.5 µg/mL (≈ 30.3 µM).

As to `CC(C)(C)NC(=O)c1ccccc1SC[C@@H](O)[C@H](CC1CCCCC1)NC(=O)[C@H](CC(N)=O)NC(=O)c1ccc2ccccc2n1` [Compound 78], the IC50 in the assay on HIV-1, isolate III B was found to be 0.68 µg/mL (≈ 1.05 µM); at HIV1 protease [2], 230 nM.

`CC(C)(C)NC(=O)c1ccccc1SC[C@H](O)[C@H](Cc1ccc(O)cc1)NC(=O)[C@H](CC(N)=O)NC(=O)c1ccc2ccccc2n1` [Compound 79]: the IC50 with HIV-1, isolate III B is 9.1 µg/mL (≈ 13.8 µM); at HIV1 protease [2], > 500 nM.

In the case of `CC(C)(C)NC(=O)c1ccccc1OC[C@H](O)[C@H](Cc1ccccc1)NC(=O)[C@H](CC(N)=O)NC(=O)OCc1ccccc1` [IN 1], the IC50 was found to be 4.95 µg/mL (≈ 8.19 µM) in the assay with HIV-1, isolate III B and 80 nM on HIV1 protease [2].

On to `COc1ccc(C[C@H](NC(=O)OC(C)(C)C)C(=O)N[C@@H](Cc2ccccc2)[C@@H](O)CSc2ccccc2C(=O)NC(C)(C)C)cc1` [IN 2], for which, on HIV1 protease [1], the IC50 is > 100 nM.

On to `CC(C)(C)NC(=O)c1ccccc1SC[C@H](O)[C@H](Cc1ccccc1)NC(=O)[C@H](CCC(N)=O)NC(=O)OC(C)(C)C` [IN 3], for which the IC50 on HIV1 protease [1] is > 100 nM.

Take `CC(C)[C@H](NC(=O)OC(C)(C)C)C(=O)N[C@@H](Cc1ccccc1)[C@@H](O)CSc1ccccc1C(=O)NC(C)(C)C` [IN 4]: the IC50 at HIV1 protease [1] was > 100 nM.

For `CSCC[C@H](NC(=O)OC(C)(C)C)C(=O)N[C@@H](Cc1ccccc1)[C@@H](O)CSc1ccccc1C(=O)NC(C)(C)C` [IN 5], the IC50 at HIV1 protease [1] was > 100 nM.

Turning to `CC(C)(C)NC(=O)c1ccccc1SC[C@H](O)[C@H](Cc1ccccc1)NC(=O)[C@H](Cc1c[nH]c2ccccc12)NC(=O)OC(C)(C)C` [IN 6], the 50% inhibitory concentration (IC50) on HIV1 protease [1] was > 100 nM.
